System: human Treg cells
Experiment: Functional screening assay: naïve CD4+ T cell proliferation ([3H]thymidine) with Treg cells and small molecule compounds
Format: cell-based
Conditions: compound 1 μM; [3H]thymidine incorporation; marked effect = CPM>60K, 50% restoration
Protocol: These small molecule compounds contain a quinolone structure. Those with a marked effect on the proliferation of CD4^+ naïve T cells (CPM>60K, 50% restoration compared to naïve T cells alone) are considered excellent candidates for further drug development. Naïve T cells alone or CD4^+ naïve cells plus Treg cells, without any compound serve as controls. […]
Specifically, a functional screening assay was carried out using soluable anti-CD3 antibody plus antigen-presenting cells (APCs). Naïve CD4^+T cells were purified from PBMCs using microbeads (Miltenvi Biotec). DCs were generated from PBMC-derived monocytes in the presence of IL-4 (500 ng/ml) and GM-CSF (800 ng/ml) for 7 days. 1×10^5 naïve CD4^+ T cells were cultured with regulatory T cells at different ratios of 1:0.2, 1:0.1 and 1:0.05 in 200 μl of medium containing 2×10^4 of DCs and anti-CD3 antibody (100 ng/ml) in the absence or presence of various small molecule compounds (1 μM). □ After 56 hours of culture, [^3H]thymidine was added at a final concentration of 1 μCi/well, followed by an additional 16 h. of culture. The incorporation of [^3H]thymidine was measured with a liquid scintillation counter. All experiments were performed in triplicate. In addition, a screening assay was performed usinge anti-CD3 antibody coated without APCs: 1×10^5 naïve CD4 T cells were cultured with regulatory T cells at different ratios of 1:0.2, 1:0.1 and 1:0.05 in anti-CD3 mAb-coated (2 μg/ml) 96-well plates in the absence or presence of various small molecule compounds (1 μM) □. After 56 h of culture, [^3H]thymidine was added at a final concentration of 1 μCi/well, followed by an additional 16 h of culture. The incorporation of [^3H]thymidine was measured with a liquid scintillation counter.

Row | SMILES | Reversal of the suppressive function of Treg cells (restoration of naïve CD4+ T cell proliferation)
1 | CCOC(=O)c1cn(CC)c2c(F)c(F)c(F)cc2c1=O [#27, Ethyl 1-ethyl-6,7,8-trifluoro-1,4-dihydro-4-oxo-3-quinolinecarboxylate] | TRE0080754 #27 No activity
2 | CCCCCn1cc(C(=O)O)c(=O)c2cc(F)c(F)cc21 [#8, 6,7-difluoro-4-oxo-1-pentylquinoline-3-carboxylic acid] | ST008097 #8 No activity
3 | CC1COc2c(F)c(F)cc3c(=O)c(C(=O)O)cn1c23 (stereo not shown) [#20, 9,10-Difluoro-3-methyl-7-oxo-2,3-dihydro-7H-[1,4]oxazino[2,3,4-ij]quinoline-6-carboxylic acid] | TRE0008195 #20 No activity
4 | Fc1ccccc1N1CCNCC1 [#17, 1-(2-Fluorophenyl)piperazine] | TRE0005772 #17 No activity
5 | CCn1cc(C(=O)O)c(=O)c2cc(F)c(NN3C(=O)/C(=C\c4ccccc4)N=C3c3ccccc3)cc21 [#9, F[…] 5- MALEIMIDE] | ST023837 #9 No activity
6 | O=C(O)c1coc2ccc(F)cc2c1=O [#28, 6-Fluoro-4-oxo-4H-chromene-3-carboxylic acid] | TRE0080974 #28 No activity
7 | CCN1CCN(c2cc3c(cc2F)c(=O)c(C(=O)O)cn3C2CC2)CC1 [#26, 1-Cyclopropyl-7-(4-ethyl-1-piperazinyl)-6-fluoro-4-oxo-1,4-dihydro-3-quinolinecarboxylic acid, reference compound] | TRE0076990 #26 No activity
8 | Fc1ccc(N2CCNCC2)c(F)c1 [#16, 1-(2,4-Difluorophenyl)piperazine] | TRE0005495 #16 No activity
9 | CCOC(=O)c1cn(-c2ccc(F)cc2F)c2nc(Cl)c(F)cc2c1=O [#14, ethyl 7-chloro-1-(2,4-difluorophenyl)-6-fluoro-4-oxo-1,8-naphthyridine-3-carboxylate] | ST067113 #14 No activity
10 | CCn1cc(C(=O)O)c(=O)c2cc(F)c(NN3C(=O)CSC3c3ccccc3Cl)cc21 (stereo not shown) [#11, {[2-(2-chlorophenyl)-4-oxo(1,3-thiazolidin-3-yl)]amino}-1-ethyl-6-fluoro-4-o xohydroquinoline-3-carboxylic acid] | ST048777 #11 No activity
11 | O=C(O)c1c[nH]c2ccccc2c1=O [#10, 4-oxo-1H-quinoline-3-carboxylic acid] | ST020639 #10 No activity
12 | Fc1ccccc1N1CCNCC1 [#15, 1-(2-Fluorophenyl)piperazine] | TRE0004030 #15 No activity
13 | CC1CCc2cc(F)cc3c(=O)c(C(=O)O)cn1c23 (stereo not shown) [#21, 9-Fluoro-5-methyl-1-oxo-6,7-dihydro-1H,5H-pyrido[3,2,1-ij]quinoline-2-carboxylic acid, reference compound] | TRE0065224 #21 No activity
14 | CCn1cc(C(=O)O)c(=O)c2cc(F)c(Cl)cc21 [#19, 7-Chloro-1-ethyl-6-fluoro-4-oxo-1,4-dihydro-3-quinolinecarboxylic acid] | TRE0007211 #19 No activity
15 | CCOC(=O)c1c[nH]c2c(F)c(F)c(F)cc2c1=O [#18, Ethyl 6,7,8-trifluoro-1,4-dihydro-4-oxo-3-quinilinecarboxylate] | TRE0006666 #18 No activity
16 | CCn1cc(C(=O)O)c(=O)c2cc(F)c(NN3C(=O)C(Cl)C3c3ccc(OC)cc3)cc21 (stereo not shown) [#12, 7-{[3-Chloro-2-(4-methoxyphenyl)-4-oxo-1-azetidinyl]amino}-1-ethyl-6-fluoro-4-oxo-1,4-dihydro-3-quinolinecarboxylic acid] | ST026709 #12 No activity
